According to patent US6800630B2, “Pyrimidine derivatives having antitumor effect” (Shionogi & Co., Ltd., priority 2000, dated 2004):
Values after ≈ are worked out from the molar mass of the structure shown.

What was measured:
Format in all cases: cell-based
[1] = test system: human lung adenocarcinoma A549; assay: In vitro cell growth inhibition test, MTT assay; conditions: MTT assay 4 days after compound addition
From the text: (§1) Test Example 2 In vitro cell growth inhibition test Cells and MTT assay
(§2) Human squamous lung cancer […], human squamous lung cancer Ma44, human lung adenocarcinoma A549, human colon cancer HT29 and human pancreas cancer PANC-1 were used.

[2] = test system: human colon cancer HT29; assay: In vitro cell growth inhibition test, MTT assay; conditions: MTT assay 4 days after compound addition
From the text: as §1, §2

[3] = test system: human squamous lung cancer Ma44; assay: In vitro cell growth inhibition test, MTT assay; conditions: MTT assay 4 days after compound addition
From the text: as §1, §2

[4] = test system: human pancreas cancer PANC-1; assay: In vitro cell growth inhibition test, MTT assay; conditions: MTT assay 4 days after compound addition
From the text: as §1, §2

[5] = test system: human squamous lung cancer RERF-RC-AI; assay: In vitro cell growth inhibition test, MTT assay; conditions: MTT assay 4 days after compound addition
From the text: as §1, §2

[6] = test system: DT-C cells (pGV-P transfected v-ki-ras-transformed NIH373 cells); assay: Luciferase activity of DT-C control cells (IC50-C), index of non-specific transcription-inhibitory effect or cytotoxicity; conditions: tested concentration nearest to 50% inhibition in DT-C cells
From the text: (§3) Test Example 1 Inhibitory effect against cellular signaling derived from Ras oncogene products
(§4) Based on the reporter plasmid (pGV-P (Toyo Ink, Japan)), in which luciferase gene was ligated to SV40-derived minimal promoter, we constructed a plasmid designated pRRE3-luc by inserting 3 copies of chemically synthesized oligonucleotides (Sequence: CAGGATATGACTCT, derived from mouse NVL-3 (M. A. Reddy et al.(1992)Mol. Endocrinol., 6, 1051)) into upstream of the promoter. v-ki-ras-transformed NIH373 cells (DT cells, provided by Dr. Makoto Noda (Kyoto Univ., School of medicine)) were transfected with this plasmid by liposome-mediated transfection and transfected cell lines stably incorporated and maintained each plasmid were obtained. We named pGV-P and pRRE3-transfected cell line as DT-C and DT-R, respectively and used in the assay described below.
(§5) i) All the cell lines were cultured in Dulbecco's Modified Essential Medium (DMEM: 10% Fetal Calf Serum(FCS: Hyclone, USA)) including […] kanamycin (Meiji Seika, Japan) in humidified incubator under condition of 5% CO2 at 37° C.
(§6) ii) DT-C and DT-R cells were seeded at 2500 cells/well into flat-bottom 96 well multiplate (Sumitomo bakelite) and incubated for 24 hours.
(§7) iii) Test compounds were prepared as 1 mg/ml DMSO solution.
(§8) iv) The solution of test compounds were added to the culture. Tested compounds are used at the concentration from […] to 0.51 ng/ml with 3-fold dilution.
(§9) v) After 24 hours, the culture supernatant was completely aspirated and 20 μl of cell-lysing solution (PGC-50 (Toyo Ink, Japan)) was added before cells were dried up. In order to lyse the cells completely, multiwell plates were left at room temperature for 10 to 30 min. The plates were wrapped up and stored at −20° C. till the day of measurement.
(§10) i) Melt the samples by putting 96 well multiplate at 37° C. and add 90 μl/well 25 mM Tris (pH 7.5).
(§11) ii) Transfer 50 μl of the sample (110 μl) to the 96 well microplate (Microlite 1 (Dynatech)) for measurement.
(§12) iii) Measure the samples by the luminometer, LUMINOUS CT9000D (Dia-Yatron, Japan). We used Pickagene luminescence kit PGL2000 or LT2.0 (Toyo Ink, Japan) as enzyme substrates for luminescence measurement (50 μl/well).
(§13) i) The luciferase activity of DT-C cells and DT-R cells were plotted in the graph where the relative activity and the compound concentration were expressed as Y-axis and X-axis, respectively. We judged by the degree of dissociation between the activities of DT-C cells and DT-R cells as an index.
b) Among the points of concentration tested, the concentration which is the nearest to 50% inhibition concentration at DT-C cells (IC50-C), was shown as an index of non-specific transcription-inhibitory effect or of cytotoxicity. In case of positive compounds, 50% inhibition concentration in DT-C cells which was higher than the active concentration was expressed as IC50-C.

[7] = test system: signal derived from Ras oncogene products (DT-R cells, pRRE3-luc transfected v-ki-ras-transformed NIH373 cells); assay: Inhibitory effect against cellular signaling derived from Ras oncogene products: RRE-luciferase reporter, Minimal Active Concentration (MAC) at which DT-C and DT-R activities dissociate; conditions: minimal concentration at which luciferase activities of DT-C and DT-R cells dissociated
From the text: as §3, §4, §5, §6, §7, §8, §9, §10, §11, §12, §13
ii) Concretely, efficacy of the compound was expressed by two values described below.
a) Among the points of concentration tested, the minimal concentration (Minimal Active Concentration: MAC), at which the activities of DT-C cells and DT-R cells dissociated, was shown as an index of efficacy of the compound.

[8] = test system: H460; assay: In vitro cell growth inhibition test, MTT assay; conditions: MTT assay 4 days after compound addition
From the text: [The source words this procedure for another cell line and reports this cell line under the same test.] as §1, §2

SMILES | IC50 A549 [1] [µg/mL] | IC50 HT-29 [2] [µg/mL] | IC50 Ma44 [3] [µg/mL] | IC50 PANC-1 [4] [µg/mL] | IC50 RERF-LC-AI [5] [µg/mL] | IC50 (IC50-C) [6] [µg/mL] | MAC (Minimal Active Concentration) [7] [µg/mL] | IC50 H460 [8] [µg/mL]
CCCNC(=Nc1nc(C)ncc1CSc1nnc(-c2ccc([N+](=O)[O-])cc2)o1)SC [Compound A-4] | 0.038 (≈ 0.0827 µM) | 0.023 (≈ 0.05 µM) | 0.051 (≈ 0.111 µM) | 0.026 (≈ 0.0566 µM) | 0.03 (≈ 0.0653 µM) | >10 | 0.37 | 
CCNC(=Nc1nc(C)ncc1C(C)Sc1nnc(-c2ccc([N+](=O)[O-])cc2)o1)NCC (racemic) [Compound A-23] |  |  |  |  |  | >10 | 3.33 | 
CNC(=Nc1nc(C)ncc1CSc1nnc(-c2ccc([N+](=O)[O-])cc2)o1)SC [Compound A-1] | 0.0009 (≈ 0.00209 µM) | 0.045 (≈ 0.104 µM) | 0.12 (≈ 0.278 µM) | 0.046 (≈ 0.107 µM) |  | >10 | 1.11 | 
CCCSC(=Nc1nc(C)ncc1CSc1nnc(-c2ccc(N)cc2)o1)NCC [Compound A-16] | 0.0146 (≈ 0.0329 µM) | 0.0081 (≈ 0.0183 µM) | 0.0136 (≈ 0.0307 µM) | 0.0065 (≈ 0.0147 µM) | 0.0073 (≈ 0.0165 µM) | >10 | <0.000508 | 0.0107 (≈ 0.0241 µM)
CCSC(=Nc1nc(C)ncc1CSc1nnc(-c2ccc([N+](=O)[O-])cc2)o1)NC [Compound A-5] | 0.07 (≈ 0.157 µM) | 0.0484 (≈ 0.109 µM) | 0.0446 (≈ 0.1 µM) | 0.0665 (≈ 0.149 µM) | 0.033 (≈ 0.0741 µM) |  | 0.123 | 0.089 (≈ 0.2 µM)
CCNC(=Nc1nc(C)ncc1C(C)Sc1nnc(-c2ccc([N+](=O)[O-])cc2)o1)SC (racemic) [Compound A-22] |  |  | 0.042 (≈ 0.0914 µM) |  |  | >10 | 1.11 | 
C#CCNC(=Nc1nc(C)ncc1CSc1nnc(-c2ccc([N+](=O)[O-])cc2)o1)NC [Compound C-2, reference compound] | 0.0044 (≈ 0.01 µM) | 0.002 (≈ 0.00456 µM) | 0.0034 (≈ 0.00775 µM) | 0.002 (≈ 0.00456 µM) |  | >10 | 0.0137 | 
CCCSC(=Nc1nc(C)ncc1CSc1nnc(-c2ccc([N+](=O)[O-])cc2)o1)NC [Compound A-7] | 0.0021 (≈ 0.00457 µM) | 0.0036 (≈ 0.00783 µM) | 0.0016 (≈ 0.00348 µM) | 0.0006 (≈ 0.00131 µM) | 0.0013 (≈ 0.00283 µM) | 3.33 (≈ 7.25 µM) | 0.123 | 0.0038 (≈ 0.00827 µM)
CCNC(=Nc1nc(C)ncc1CSc1nnc(-c2ccc(N)cc2)o1)SCC [Compound A-14] | 0.012 (≈ 0.0279 µM) | 0.011 (≈ 0.0256 µM) | 0.032 (≈ 0.0745 µM) | 0.0098 (≈ 0.0228 µM) | 0.012 (≈ 0.0279 µM) | >10 | 0.0412 | 
CCSC(=Nc1nc(C)ncc1CSc1nnc(-c2ccc(N)cc2)o1)NC [Compound A-13] | 0.015 (≈ 0.0361 µM) | 0.0089 (≈ 0.0214 µM) | 0.03 (≈ 0.0722 µM) | 0.0077 (≈ 0.0185 µM) |  |  | 0.0137 | 
